The values that follow are results of earlier work, collected in patent US20240398797A1, “COMBINATION THERAPIES FOR METASTATIC CASTRATION-RESISTANT PROSTATE CANCER” (Janssen Pharmaceutica NV, priority 2021, published 2024).

SMILES strings stand for the structures.

In series [1] the test system is non-castrate hormone-sensitive and bicalutamide-resistant human prostate cancer xenograft models.
The target in the next series is T1, T877A AR mutant (Homo sapiens, UniProt P10275, T878A).
T1 sequence (P10275 1-920 T878A): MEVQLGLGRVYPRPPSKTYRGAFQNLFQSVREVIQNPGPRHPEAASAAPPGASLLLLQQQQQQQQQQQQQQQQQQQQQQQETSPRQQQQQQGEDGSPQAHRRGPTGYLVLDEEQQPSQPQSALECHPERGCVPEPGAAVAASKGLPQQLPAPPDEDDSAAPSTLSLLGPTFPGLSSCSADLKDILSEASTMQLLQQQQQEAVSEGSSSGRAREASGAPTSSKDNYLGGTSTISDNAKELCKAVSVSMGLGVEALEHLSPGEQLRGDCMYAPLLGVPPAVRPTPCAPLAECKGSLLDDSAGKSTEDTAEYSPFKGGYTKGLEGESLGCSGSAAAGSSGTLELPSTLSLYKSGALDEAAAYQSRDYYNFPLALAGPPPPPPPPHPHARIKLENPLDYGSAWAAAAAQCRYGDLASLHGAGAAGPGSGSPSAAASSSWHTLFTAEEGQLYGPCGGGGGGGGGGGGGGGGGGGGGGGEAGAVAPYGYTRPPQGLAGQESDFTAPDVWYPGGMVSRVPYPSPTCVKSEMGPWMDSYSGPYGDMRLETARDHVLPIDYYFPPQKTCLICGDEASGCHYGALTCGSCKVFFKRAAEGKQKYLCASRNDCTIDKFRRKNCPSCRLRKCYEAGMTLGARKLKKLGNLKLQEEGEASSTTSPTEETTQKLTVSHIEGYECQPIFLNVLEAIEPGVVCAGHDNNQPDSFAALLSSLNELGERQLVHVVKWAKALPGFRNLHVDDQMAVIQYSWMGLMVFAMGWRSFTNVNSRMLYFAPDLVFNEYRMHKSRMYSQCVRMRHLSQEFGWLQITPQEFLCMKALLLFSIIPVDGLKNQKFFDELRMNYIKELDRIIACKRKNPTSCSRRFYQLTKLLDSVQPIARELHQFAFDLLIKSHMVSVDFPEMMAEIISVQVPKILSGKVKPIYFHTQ

In the case of `CNC(=O)c1ccc(N2C(=S)N(c3cnc(C#N)c(C(F)(F)F)c3)C(=O)C23CCC3)cc1F` [Apalutamide, 4-[7-(6-cyano-5-trifluoromethylpyridin-3-yl)-8-oxo-6-thioxo-5,7-diazaspiro [3.4]oct-5-yl]-2-fluoro-N-methylbenzamide], the tumor regression entry in series [1] is reported as “partial or complete tumor regression”.

Take `CC(C)(O)C(=O)Nc1ccc([N+](=O)[O-])c(C(F)(F)F)c1` [hydroxyflutamide]: the “activity at AR mutant” value on T877A AR mutant is given as “act as AR agonists”.
